What follows are molecules tested against human sodium ion channel 1.7 (hNav1.7) (Homo sapiens, UniProt Q15858) (assay: Blocking effect against sodium ion channel Nav1.7, IonFlux16 auto patch clamp in hNav1.7 HEK293 cells). Details: hNav1.7 HEK293 cells; inhibition of peak current after 50 seconds treatment; eight concentrations; read-out: IC50.
human sodium ion channel 1.7 (hNav1.7), sequence (Q15858 whole entry): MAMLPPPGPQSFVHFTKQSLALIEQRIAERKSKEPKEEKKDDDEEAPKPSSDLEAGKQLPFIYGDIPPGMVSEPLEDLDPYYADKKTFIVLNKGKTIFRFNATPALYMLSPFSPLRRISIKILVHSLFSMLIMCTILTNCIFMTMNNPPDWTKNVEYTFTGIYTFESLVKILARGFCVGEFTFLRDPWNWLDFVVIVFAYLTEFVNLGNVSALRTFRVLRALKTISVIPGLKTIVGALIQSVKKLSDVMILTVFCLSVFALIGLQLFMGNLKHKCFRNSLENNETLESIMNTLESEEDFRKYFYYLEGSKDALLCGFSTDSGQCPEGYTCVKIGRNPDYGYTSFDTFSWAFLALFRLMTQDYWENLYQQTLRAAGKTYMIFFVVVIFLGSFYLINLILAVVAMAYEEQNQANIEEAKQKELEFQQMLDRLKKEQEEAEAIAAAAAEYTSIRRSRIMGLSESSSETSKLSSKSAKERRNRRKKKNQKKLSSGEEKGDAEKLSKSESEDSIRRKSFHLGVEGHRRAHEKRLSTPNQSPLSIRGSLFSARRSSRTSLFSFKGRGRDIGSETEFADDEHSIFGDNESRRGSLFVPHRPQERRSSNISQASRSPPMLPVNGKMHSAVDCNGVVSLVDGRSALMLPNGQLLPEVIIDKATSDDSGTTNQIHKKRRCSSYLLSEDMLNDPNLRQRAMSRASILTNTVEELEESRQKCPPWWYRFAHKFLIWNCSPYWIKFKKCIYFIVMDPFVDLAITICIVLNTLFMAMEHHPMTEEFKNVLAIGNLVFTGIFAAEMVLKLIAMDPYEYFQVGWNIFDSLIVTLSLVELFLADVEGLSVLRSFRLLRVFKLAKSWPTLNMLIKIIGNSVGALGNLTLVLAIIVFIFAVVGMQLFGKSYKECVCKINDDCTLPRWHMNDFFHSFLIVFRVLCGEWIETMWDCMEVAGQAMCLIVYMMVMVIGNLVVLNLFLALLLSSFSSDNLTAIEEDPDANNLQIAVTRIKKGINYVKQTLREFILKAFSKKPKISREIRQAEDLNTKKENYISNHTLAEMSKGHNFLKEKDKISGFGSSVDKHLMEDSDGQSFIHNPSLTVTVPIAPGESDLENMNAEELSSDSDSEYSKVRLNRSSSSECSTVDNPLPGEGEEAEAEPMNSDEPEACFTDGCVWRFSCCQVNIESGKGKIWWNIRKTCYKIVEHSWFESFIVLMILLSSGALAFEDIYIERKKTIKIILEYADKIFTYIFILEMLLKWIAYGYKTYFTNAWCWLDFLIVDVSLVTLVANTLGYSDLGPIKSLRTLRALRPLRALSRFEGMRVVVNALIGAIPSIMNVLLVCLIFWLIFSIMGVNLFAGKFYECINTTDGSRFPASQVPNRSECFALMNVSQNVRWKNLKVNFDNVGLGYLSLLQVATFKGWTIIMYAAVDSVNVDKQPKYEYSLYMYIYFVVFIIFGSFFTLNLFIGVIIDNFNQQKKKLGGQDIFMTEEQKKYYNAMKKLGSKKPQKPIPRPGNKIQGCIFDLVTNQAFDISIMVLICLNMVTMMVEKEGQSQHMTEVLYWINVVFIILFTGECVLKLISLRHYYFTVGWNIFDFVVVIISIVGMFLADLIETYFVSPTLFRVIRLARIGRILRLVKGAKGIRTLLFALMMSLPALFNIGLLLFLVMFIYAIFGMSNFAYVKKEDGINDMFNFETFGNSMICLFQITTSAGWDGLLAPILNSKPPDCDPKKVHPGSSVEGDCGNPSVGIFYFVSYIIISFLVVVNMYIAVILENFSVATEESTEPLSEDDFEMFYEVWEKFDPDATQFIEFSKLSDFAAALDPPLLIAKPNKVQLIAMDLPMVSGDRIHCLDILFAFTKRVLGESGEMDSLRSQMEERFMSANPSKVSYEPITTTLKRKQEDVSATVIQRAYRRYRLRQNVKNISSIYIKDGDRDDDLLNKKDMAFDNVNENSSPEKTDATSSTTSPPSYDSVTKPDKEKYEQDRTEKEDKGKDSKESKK
Assay type: cell-based
CS(=O)(=O)NC(=O)c1ccc(-n2nc(-c3cccc(F)c3)c3cc(Cl)ccc32)c(C#N)c1 [Example 103, 4-(5-chloro-3-(3-fluorophenyl)-1H-indazol-1-yl)-3-cyano-N-(methylsulfonyl)benzamide] was tested, and the IC50 was 2170 nM. In the case of CS(=O)(=O)NC(=O)c1ccc(-n2nc(-c3cncc(Cl)c3)c3cc(Cl)ccc32)c(C#N)c1 [Example 104, 4-(5-chloro-3-(5-chloropyridin-3-yl)-1H-indazol-1-yl)-3-cyano-N-(methylsulfonyl)benzamide], the IC50 is reported as over 10000 nM. For CS(=O)(=O)NC(=O)c1ccc(-n2nc(-c3ccc(F)cc3F)c3cc(Cl)ccc32)c(C#N)c1 [Example 105, 4-(5-chloro-3-(2,4-difluorophenyl)-1H-indazol-1-yl)-3-cyano-N-(methylsulfonyl)benzamide], the IC50 was 957 nM. In the case of COc1ncccc1-c1nn(-c2ccc(C(=O)NS(C)(=O)=O)cc2C#N)c2ccc(Cl)cc12 [Example 106, 4-(5-chloro-3-(2-methoxypyridin-3-yl)-1H-indazol-1-yl)-3-cyano-N-(methylsulfonyl)benzamide], the IC50 is reported as 6020 nM. COc1ccccc1-c1nn(-c2cc(Cl)c(C(=O)NS(C)(=O)=O)cc2F)c2ccc(Cl)cc12 [Example 107, 2-chloro-4-(5-chloro-3-(2-methoxyphenyl)-1H-indazol-1-yl)-5-fluoro-N-(methylsulfonyl)benzamide] was tested, and the IC50 was 811 nM. COc1ccc(-c2nn(-c3cc(Cl)c(C(=O)NS(C)(=O)=O)cc3F)c3ccc(Cl)cc23)cc1 [Example 108, 2-chloro-4-(5-chloro-3-(4-methoxyphenyl)-1H-indazol-1-yl)-5-fluoro-N-(methylsulfonyl)benzamide] showed an IC50 of 1480 nM. Work on CS(=O)(=O)NC(=O)c1cc(F)c(-n2nc(-c3cccc(C#N)c3)c3cc(Cl)ccc32)cc1Cl [Example 109, 2-chloro-4-(5-chloro-3-(3-cyanophenyl)-1H-indazol-1-yl)-5-fluoro-N-(methylsulfonyl)benzamide] yielded an IC50 of 450 nM. Molecule CS(=O)(=O)NC(=O)c1cc(F)c(-n2nc(-c3cccc(C(F)(F)F)c3)c3cc(Cl)ccc32)cc1Cl [Example 110, 2-chloro-4-(5-chloro-3-(3-(trifluoromethyl)phenyl)-1H-indazol-1-yl)-5-fluoro-N-(methylsulfonyl)benzamide] has an IC50 of 267 nM. CS(=O)(=O)NC(=O)c1cc(F)c(-n2nc(-c3ccc(C(F)(F)F)cc3)c3cc(Cl)ccc32)cc1Cl [Example 111, 2-chloro-4-(5-chloro-3-(4-(trifluoromethyl)phenyl)-1H-indazol-1-yl)-5-fluoro-N-(methylsulfonyl)benzamide] gave an IC50 of 552 nM. CS(=O)(=O)NC(=O)c1cc(F)c(-n2nc(-c3ccc(F)cc3)c3cc(Cl)ccc32)cc1Cl [Example 112, 2-chloro-4-(5-chloro-3-(4-fluorophenyl)-1H-indazol-1-yl)-5-fluoro-N-(methylsulfonyl)benzamide] was tested, and the IC50 was 789 nM. With CS(=O)(=O)NC(=O)c1cc(F)c(-n2nc(-c3ccccc3F)c3cc(Cl)ccc32)cc1Cl [Example 113, 2-chloro-4-(5-chloro-3-(2-fluorophenyl)-1H-indazol-1-yl)-5-fluoro-N-(methylsulfonyl)benzamide] the IC50 was 752 nM. Molecule CS(=O)(=O)NC(=O)c1cc(F)c(-n2nc(-c3cccc(F)c3)c3cc(Cl)ccc32)cc1Cl [Example 114, 2-chloro-4-(5-chloro-3-(3-fluorophenyl)-1H-indazol-1-yl)-5-fluoro-N-(methylsulfonyl)benzamide] has an IC50 of 1440 nM. CS(=O)(=O)NC(=O)c1cc(F)c(-n2nc(-c3ccc(F)cc3F)c3cc(Cl)ccc32)cc1Cl [Example 115, 2-chloro-4-(5-chloro-3-(2,4-difluorophenyl)-1H-indazol-1-yl)-5-fluoro-N-(methylsulfonyl)benzamide] showed an IC50 of 727 nM. COc1ncccc1-c1nn(-c2cc(Cl)c(C(=O)NS(C)(=O)=O)cc2F)c2ccc(Cl)cc12 [Example 116, 2-chloro-4-(5-chloro-3-(2-methoxypyridin-3-yl)-1H-indazol-1-yl)-5-fluoro-N-(methylsulfonyl)benzamide] gave an IC50 of 3000 nM. For COc1ccccc1-c1nn(-c2ccc(C(=O)NS(C)(=O)=O)cc2F)c2ccc(Cl)cc12 [Example 117, 4-(5-chloro-3-(2-methoxyphenyl)-1H-indazol-1-yl)-3-fluoro-N-(methylsulfonyl)benzamide], the IC50 was 640 nM. With COc1ccc(-c2nn(-c3ccc(C(=O)NS(C)(=O)=O)cc3F)c3ccc(Cl)cc23)cc1 [Example 118, 4-(5-chloro-3-(4-methoxyphenyl)-1H-indazol-1-yl)-3-fluoro-N-(methylsulfonyl)benzamide] the IC50 was 360 nM. For CS(=O)(=O)NC(=O)c1ccc(-n2nc(-c3cccc(C#N)c3)c3cc(Cl)ccc32)c(F)c1 [Example 119, 4-(5-chloro-3-(3-cyanophenyl)-1H-indazol-1-yl)-3-fluoro-N-(methylsulfonyl)benzamide], the IC50 was 1790 nM. For CS(=O)(=O)NC(=O)c1ccc(-n2nc(-c3ccc(C#N)cc3)c3cc(Cl)ccc32)c(F)c1 [Example 120, 4-(5-chloro-3-(4-cyanophenyl)-1H-indazol-1-yl)-3-fluoro-N-(methylsulfonyl)benzamide], the IC50 was 3890 nM. CS(=O)(=O)NC(=O)c1ccc(-n2nc(-c3cccc(C(F)(F)F)c3)c3cc(Cl)ccc32)c(F)c1 [Example 121, 4-(5-chloro-3-(3-(trifluoromethyl)phenyl)-1H-indazol-1-yl)-3-fluoro-N-(methylsulfonyl)benzamide] was tested, and the IC50 was 1090 nM. CS(=O)(=O)NC(=O)c1ccc(-n2nc(-c3ccc(C(F)(F)F)cc3)c3cc(Cl)ccc32)c(F)c1 [Example 122, 4-(5-chloro-3-(4-(trifluoromethyl)phenyl)-1H-indazol-1-yl)-3-fluoro-N-(methylsulfonyl)benzamide] was tested, and the IC50 was 310 nM. In the case of CS(=O)(=O)NC(=O)c1ccc(-n2nc(-c3ccc(F)cc3)c3cc(Cl)ccc32)c(F)c1 [Example 123, 4-(5-chloro-3-(4-fluorophenyl)-1H-indazol-1-yl)-3-fluoro-N-(methylsulfonyl)benzamide], the IC50 is reported as 350 nM. CS(=O)(=O)NC(=O)c1ccc(-n2nc(-c3ccccc3F)c3cc(Cl)ccc32)c(F)c1 [Example 124, 4-(5-chloro-3-(2-fluorophenyl)-1H-indazol-1-yl)-3-fluoro-N-(methylsulfonyl)benzamide] gave an IC50 of 290 nM. CS(=O)(=O)NC(=O)c1ccc(-n2nc(-c3cccc(F)c3)c3cc(Cl)ccc32)c(F)c1 [Example 125, 4-(5-chloro-3-(3-fluorophenyl)-1H-indazol-1-yl)-3-fluoro-N-(methylsulfonyl)benzamide] was tested, and the IC50 was 560 nM. In the case of CS(=O)(=O)NC(=O)c1ccc(-n2nc(-c3ccc(Cl)cc3)c3cc(Cl)ccc32)c(F)c1 [Example 126, 4-(5-chloro-3-(4-chlorophenyl)-1H-indazol-1-yl)-3-fluoro-N-(methylsulfonyl)benzamide], the IC50 is reported as 990 nM. For CS(=O)(=O)NC(=O)c1ccc(-n2nc(-c3ccccc3)c3cc(Cl)ccc32)cc1F [Example 127, 4-(5-chloro-3-phenyl-1H-indazol-1-yl)-2-fluoro-N-(methylsulfonyl)benzamide], the IC50 was 3940 nM. In the case of CS(=O)(=O)NC(=O)c1ccc(-n2nc(-c3ccc(Cl)cc3F)c3cc(Cl)ccc32)nc1 [Example 128, 6-(5-chloro-3-(4-chloro-2-fluorophenyl)-1H-indazol-1-yl)-N-(methylsulfonyl)nicotinamide], the IC50 is reported as 1330 nM. CC(C)(O)C#Cc1nn(-c2cc(F)c(C(=O)NS(C)(=O)=O)cc2Cl)c2ccc(Cl)cc12 [Example 129, 5-chloro-4-(5-chloro-3-(3-hydroxy-3-methylbut-1-yn-1-yl)-1H-indazol-1-yl)-2-fluoro-N-(methylsulfonyl)benzamide] showed an IC50 of 1740 nM. Cn1cc(-c2nn(-c3cc(F)c(C(=O)NS(C)(=O)=O)cc3Cl)c3ccc(Cl)cc23)ccc1=O [Example 130, 5-chloro-4-(5-chloro-3-(1-methyl-6-oxo-1,6-dihydropyridin-3-yl)-1H-indazol-1-yl)-2-fluoro-N-(methylsulfonyl)benzamide] gave an IC50 of over 10000 nM. With CC(C)(C)OC(=O)N1CC=C(c2nn(-c3cc(F)c(C(=O)NS(C)(=O)=O)cc3Cl)c3ccc(Cl)cc23)CC1 [Example 131, tert-butyl 4-(5-chloro-1-(2-chloro-5-fluoro-4-((methylsulfonyl)carbamoyl)phenyl)-1H-indazol-3-yl)-3,6-dihydropyridine-1(2H)-carboxylate] the IC50 was 2600 nM. Molecule CS(=O)(=O)NC(=O)c1cc(Cl)c(-n2nc(C3=CCNCC3)c3cc(Cl)ccc32)cc1F [Example 132, 5-chloro-4-(5-chloro-3-(1,2,3,6-tetrahydropyridin-4-yl)-1H-indazol-1-yl)-2-fluoro-N-(methylsulfonyl)benzamide] has an IC50 of over 10000 nM. Molecule CS(=O)(=O)NC(=O)c1cc(Cl)c(-n2nc(/C=C/c3ccccc3)c3cc(Cl)ccc32)cc1F [Example 133, (E)-5-chloro-4-(5-chloro-3-styryl-1H-indazol-1-yl)-2-fluoro-N-(methylsulfonyl)benzamide] has an IC50 of 120 nM. CS(=O)(=O)NC(=O)c1cc(Cl)c(-n2nc(/C=C/c3ccccn3)c3cc(Cl)ccc32)cc1F [Example 134, (E)-5-chloro-4-(5-chloro-3-(2-(pyridin-2-yl)vinyl)-1H-indazol-1-yl)-2-fluoro-N-(methylsulfonyl)benzamide] gave an IC50 of 2170 nM. CS(=O)(=O)NC(=O)c1cc(Cl)c(-n2nc(/C=C/c3ccccc3F)c3cc(Cl)ccc32)cc1F [Example 135, (E)-5-chloro-4-(5-chloro-3-(2-fluorostyryl)-1H-indazol-1-yl)-2-fluoro-N-(methylsulfonyl)benzamide] showed an IC50 of 370 nM. CS(=O)(=O)NC(=O)c1cc(Cl)c(-n2nc(/C=C/c3ccccc3Cl)c3cc(Cl)ccc32)cc1F [Example 136, (E)-5-chloro-4-(5-chloro-3-(2-chlorostyryl)-1H-indazol-1-yl)-2-fluoro-N-(methylsulfonyl)benzamide] gave an IC50 of 1010 nM. CS(=O)(=O)NC(=O)c1cc(Cl)c(-n2nc(/C=C/c3ccc(C(F)(F)F)cc3)c3cc(Cl)ccc32)cc1F [Example 137, (E)-5-chloro-4-(5-chloro-3-(4-(trifluoromethyl)styryl)-1H-indazol-1-yl)-2-fluoro-N-(methylsulfonyl)benzamide] showed an IC50 of 680 nM.

— patent US10590078B2, “Sodium channel blockers” (Daewoong Pharmaceutical Co., Ltd., priority 2015, dated 2020)
